Measurements as given in patent publication US7622476B2, “Methods of using 1-allyl ergot alkaloid derivatives to treat migraines” (priority 2002, dated 2009).
Like-named read-outs stand apart in the source and are kept apart here. Marks after values point to notes of the source that are not given here.

Assays:
5-HT2A receptors [1] = target: T1, 5-HT2A receptors (Rattus norvegicus, UniProt P14842); details: reference compounds marked *; values from H. Pertz (1996) Planta Med. 62, pp. 387-392; cited from earlier work
T1 construct: characterizing 5-HT2A receptors in rat's caudal arteries; from tissue; host or cells: rat anterior caudal artery segments, endothelium stripped (male Wistar rats)

5-HT2B receptors = experiment: Function test based on 5-HT2B receptor tissue (pig pulmonary artery, 5-HT-induced relaxation); type: cell-based; details: for 5-HT2B pA2 value: antagonism of 5-HT-induced relaxation, antagonist conc. (nM)
Method: The test was an in vitro function test to characterize 5-HT2B receptors in a pig's pulmonary artery. The pig's pulmonary artery was prepared as follows: Small branches were dissected from the pulmonary artery and cautiously freed of organ tissue and connective tissue. Up to six rings of the artery (length 2-3 mm and width 1.5-2 mm) were hung in horizontal orientation between two L-shaped platinum hooks (150 μm in diameter) and fixed in an organ bath containing 10 ml of modified Krebs-Henseleit buffer composed as follows: 118 mM NaCl, 4.7 mM KCl, 2.5 mM CaCl2, 1.2 mM MgSO4, 1.2 mM KH2PO4, 25 mM NaHCO3, and 11 mM D-glucose. A continuous flow of a gas mixture of 95% O2 and 5% CO2 passed through the solution which was kept at a constant temperature of 35° C. The preparations were connected to an isometric power converter (Hugo Sachs Elektronik, March, Germany), and voltage changes were continuously recorded. The constant voltage in stationary condition was adjusted to 20 mN at the beginning of each experiment. During an initial stabilization period of 60 minutes, the bath medium was replaced every 20 minutes and the voltage was repeatedly adjusted to 20 mN. The artery preparations were stimulated at 45-minute intervals once with KCl (30 mM) and three times with prostaglandin-F2α (PGF2α, 3 μM) until the response by contraction was visible. The undamaged condition of the endothelium was evaluated functionally by measuring the extent of endothelium-dependent relaxation following application of bradykinin (10 nM). After the third PGF2α-induced contraction had stabilized, the relaxation response was examined for 5-HT by determining a cumulative concentration-response curve in the absence and presence of the antagonist. […].
The relaxation response to the test compound was examined using the same method as with 5-HT to test for agonistic activity. The concentration of the agonist was increased in increments at the time when the response signal had reached a plateau. The plateau was typically reached within 2 to 4 minutes. The relaxation effects were expressed as a percentage of the PGF2α-induced contraction. The antagonists were added 30 minutes before the recording of the agonist concentration response curves started. The effects of the antagonists were examined in ring segments that were adjacent to the reference segments.

5-HT2A receptors [2] = target: T1, 5-HT2A receptors; experiment: Function test based on 5-HT2A receptor tissue (rat caudal artery, 5-HT concentration-response curves); type: cell-based; details: for 5-HT2A pA2 value: rat caudal artery without endothelium, antagonism of 5-HT, antagonist conc. (nM)
Description: The example below describes an in-vitro function test for characterizing 5-HT2A receptors in rat's caudal arteries.
Male Wistar rats (250-300 g) were killed by suffocation. The anterior caudal artery was dissected fast and cleared of attached connective tissue. A stainless steel wire (0.3 mm in diameter) was introduced into the artery to strip off the endothelium. […] A continuous flow of a gas mixture of 95% O2 and 5% CO2 passed through the solution which was kept at a constant temperature of 37° C. […] The constant voltage was adjusted to 5 mN at the beginning of each experiment. During an equilibrium period of 120 minutes, the preparations were stimulated once after 60 minutes with 5-HT (1 μM).
Three cumulative concentration-response curves (CRC) were determined for each artery segment in these experiments for the study of partial agonists. The first CRC was obtained for 5-HT, the second that followed 60 minutes later for the partial agonist. Finally, the third CRC was obtained 10-15 minutes after the second CRC without washing with 5-HT and using the highest agonist concentration (0.3-3 μM). Additional experiments determined two CRCs at an interval of 60 minutes as described above. The first CRC was determined for 5-HT. The second CRC was determined to test the partial agonist in the presence of ketanserin. The preparations were incubated for 30 minutes with a ketanserin solution (3 nM).
The axial shift to the right of the curves determined in the presence of ketanserin was compared to the shift determined for the respective control preparation in the absence of ketanserin. In these experiments using ketanserin, two separate CRCs to 5-HT were obtained from each artery segment at a 90-minute interval. For the antagonists, the preparations were incubated 60 minutes prior to determining the second curve. Prazosin (0.1 μM) and cocaine (6 μM) were present in the solution during these experiments to block the α1-adrenoceptors and neuronal absorption of 5-HT.

T1 sequence (P14842 whole entry): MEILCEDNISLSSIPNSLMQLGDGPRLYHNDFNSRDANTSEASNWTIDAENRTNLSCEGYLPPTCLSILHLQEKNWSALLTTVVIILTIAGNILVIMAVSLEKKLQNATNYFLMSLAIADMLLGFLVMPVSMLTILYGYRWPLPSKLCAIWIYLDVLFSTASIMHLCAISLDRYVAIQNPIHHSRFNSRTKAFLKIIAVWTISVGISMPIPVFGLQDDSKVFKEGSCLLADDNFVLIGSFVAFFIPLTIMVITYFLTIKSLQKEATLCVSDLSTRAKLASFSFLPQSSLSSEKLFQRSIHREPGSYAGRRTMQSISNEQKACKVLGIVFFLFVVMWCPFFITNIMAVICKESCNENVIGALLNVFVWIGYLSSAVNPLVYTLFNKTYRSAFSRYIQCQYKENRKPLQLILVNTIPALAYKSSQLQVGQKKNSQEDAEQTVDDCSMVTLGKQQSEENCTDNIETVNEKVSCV

CN1C[C@H](CO)C=C2c3cccc4[nH]cc(c34)C[C@H]21 [Lysergol]
5-HT2A pA2 value (5-HT2A receptors [1]): 6.88

C=CCn1cc2c3c(cccc31)C1=CC(NC(=O)N(CC)CC)CN(C)C1C2 (stereo not shown) [1-Allyl lisuride]
5-HT2B pA2 value (5-HT2B receptors): 8.17

CCN(CC)C(=O)N[C@H]1C=C2c3cccc4[nH]cc(c34)C[C@H]2N(C)C1 [Lisuride, reference compound]
5-HT2B pA2 value (5-HT2B receptors): 10.32

C=CCn1cc2c3c(cccc31)[C@H]1C[C@@H](C)CN(C)[C@@H]1C2 [1-Allyl festuclavine]
5-HT2A pA2 value (5-HT2A receptors [2]): 7.89 | 5-HT2B pA2 value (5-HT2B receptors): 6.74

CCN(CC)C(=O)N[C@H]1C[C@@H]2c3cccc4[nH]cc(c34)C[C@H]2N(C)C1 [Terguride, reference compound]
5-HT2A pA2 value (5-HT2A receptors [2]): 8.38 | 5-HT2B pA2 value (5-HT2B receptors): 8.49

C=CCn1cc2c3c(cccc31)C1=C[C@@H](C(=O)N[C@]3(C)O[C@@]4(O)C5CCCN5C(=O)[C@H](Cc5ccccc5)N4C3=O)CN(C)[C@@H]1C2 (stereo partly shown) [1-Allyl ergotamine]
5-HT2B -logKp, calculated according to Kenakin (5-HT2B receptors; printed in the pA2 column, marked **): 9.11**

C=CCn1cc2c3c(cccc31)[C@H]1C[C@@H](C(=O)N[C@]3(C)O[C@@]4(O)C5CCCN5C(=O)[C@H](Cc5ccccc5)N4C3=O)CN(C)[C@@H]1C2 (stereo partly shown) [1-Allyl dihydroergotamine]
5-HT2B pA2 value (5-HT2B receptors): 9.30

C=CCn1cc2c3c(cccc31)[C@@H]1C[C@H](NC(=O)N(CC)CC)CN(C)[C@H]1C2 [1-Allyl terguride, 1-allyl-(5R,8S,10R)-terguride]
Kb (5-HT2A receptors [2]): 2 nM | 5-HT2B pA2 value (5-HT2B receptors): 7.67

C=CCn1cc2c3c(cccc31)C1=C[C@@H](CO)CN(C)[C@@H]1C2 [1-Allyl-lysergol, 1-Allyl lysergol]
Kb (5-HT2A receptors [2]): 3.55 nM | 5-HT2B pA2 value (5-HT2B receptors): 7.61
